Results taken from patent US4851420A, “2,6-diamino-3-halobenzylpyridines and processes for their manufacture as well as their use in pharmaceuticals” (ASTA Pharma Aktiengesellschaft, priority 1986, dated 1989).

Experiments:
Toxicity, LD50 mouse = details: in vivo, po
Source text: (§1) Miller, Tainter, Proc. Soc. Exper. Biol. Med. 57, 261 (1944).

[1] = acetic acid Writhing Test (analgesia), mouse; format: in vivo; details: p.a. (so in the source)
Source text: Acetic acid Writhing Test Koster et al., Fed. Proc., Volume 18, 412 (1959).

[2] = Randall-Selitto Test (analgesia), rat; format: in vivo; details: for ED50: po
Source text: Randall-Selitto Test G. Engelhardt, Arzneim. Forsch. 34, 992 et seq. (1984); Maruyama et al., Arzneim. Forsch. 28, 11 (1978).

Toxicity, LD50 rat = details: in vivo, po
Source text: as §1

[3] = general absence of side-effects (gastrointestinal disorders, gastric ulcers); format: in vivo; details: compared to known substances, e.g. non-steroidal anti-inflammatory agents with analgesic components

Structure (SMILES)	LD50 (Toxicity, LD50 mouse) [mg/kg]	ED50 [1] [mg/kg]	ED50 [2] [mg/kg]	LD50 (Toxicity, LD50 rat) [mg/kg]	acetic acid Writhing Test Mouse, % effect at stated dose ([1]; at 0.5 mg/kg (printed 0.5/34%)) [%]	Randall-Selitto Test Rat, % effect at stated dose ([2]; p.o., at 0.5 mg/kg (printed 0.5/57%)) [%]	side-effects such as gastrointestinal disorders and gastric ulcers [3]
Nc1ccc(Cc2ccccc2F)c(N)n1 [D 17746, 2,6-diamino-3-(2-fluoro)benzylpyridine]	276						
CCOC(=O)Nc1ccc(NCc2ccc(F)cc2)nc1N [Flupirtin, reference compound]	633	44.5	38.8	1660			
Nc1ccc(Cc2c(F)cccc2Cl)c(N)n1 [D 17748, 2,6-diamino-3-(2-fluoro-6-chloro)benzylpyridine]	285				34	57	
Nc1ccc(Cc2ccc(F)cc2)c(N)n1 [D 17033, 2,6-diamino-3-(4-fluoro)benzylpyridine]	266	1.4	0.2	1100			general absence of side-effects
